Experimental data reported in patent US20230233569A1 (Revolution Medicines, Inc., priority 2020, published 2023).
Where two headings read alike, the source gives them in different places.

Assays:
Assay in all cases: Ras-Raf disruption / FRET / MOA assay (BRAF RBD)
Assay type in all cases: biochemical
KRAS WT = KRAS WT (Homo sapiens, UniProt P01116+P62937); settings: with Cyclophilin A
Summary of the method: (§1)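 TR-FRET in 25 mM HEPES pH 7.3, 100 mM NaCl, 5 mM MgCl2, 0.1% BSA, 0.002% Tween20 with 25 μM Cyclophilin A, 12.5 nM His6-Ras-GMPPNP, 50 nM GST-BRAF RBD; compound 10-point 3-fold series from 30 μM. After 3 h at 25 °C, Eu anti-His/APC anti-GST added for 1.5 h; IC50 from ratio decrease versus DMSO.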

KRAS G12V = KRAS G12V (Homo sapiens, UniProt P01116+P62937, G12V); settings: with Cyclophilin A
KRAS G12V, sequence (P01116 1-169 isoform P01116-2 G12V limits assumed): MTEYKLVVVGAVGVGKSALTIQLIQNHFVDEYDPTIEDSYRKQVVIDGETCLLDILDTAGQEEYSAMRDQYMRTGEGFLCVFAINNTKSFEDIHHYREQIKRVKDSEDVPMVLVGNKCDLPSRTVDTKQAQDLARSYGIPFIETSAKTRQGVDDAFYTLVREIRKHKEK
KRAS G12V, sequence (P62937 whole entry): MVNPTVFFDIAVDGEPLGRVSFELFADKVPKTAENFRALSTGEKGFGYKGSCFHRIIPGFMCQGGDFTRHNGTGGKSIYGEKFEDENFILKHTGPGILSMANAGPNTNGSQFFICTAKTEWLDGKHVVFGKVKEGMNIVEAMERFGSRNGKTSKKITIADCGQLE
Summary of the method: as §1

KRAS G13C = KRAS G13C (Homo sapiens, UniProt P01116+P62937, G13C); settings: with Cyclophilin A
KRAS G13C, sequence (P01116 1-169 isoform P01116-2 G13C limits assumed): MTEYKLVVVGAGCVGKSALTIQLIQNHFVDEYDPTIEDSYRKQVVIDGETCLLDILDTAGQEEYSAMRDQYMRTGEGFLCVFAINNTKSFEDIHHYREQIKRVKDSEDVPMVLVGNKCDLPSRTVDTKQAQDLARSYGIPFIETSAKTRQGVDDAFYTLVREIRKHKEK
KRAS G13C, sequence (P62937 whole entry): as the sequence (P62937 whole entry) above
Summary of the method: as §1

NRAS G12C = NRAS G12C (Homo sapiens, UniProt P01111+P62937, G12C)
NRAS G12C, sequence (P01111 whole entry G12C): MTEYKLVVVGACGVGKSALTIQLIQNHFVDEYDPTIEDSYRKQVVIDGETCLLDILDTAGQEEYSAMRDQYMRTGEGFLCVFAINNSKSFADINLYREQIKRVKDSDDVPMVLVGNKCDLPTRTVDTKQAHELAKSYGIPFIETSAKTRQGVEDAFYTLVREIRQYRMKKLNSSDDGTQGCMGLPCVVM
NRAS G12C, sequence (P62937 whole entry): as the sequence (P62937 whole entry) above
Summary of the method: as §1

KRAS G13D = KRAS G13D (Homo sapiens, UniProt P01116+P62937, G13D); settings: with Cyclophilin A
KRAS G13D, sequence (P01116 1-169 isoform P01116-2 G13D limits assumed): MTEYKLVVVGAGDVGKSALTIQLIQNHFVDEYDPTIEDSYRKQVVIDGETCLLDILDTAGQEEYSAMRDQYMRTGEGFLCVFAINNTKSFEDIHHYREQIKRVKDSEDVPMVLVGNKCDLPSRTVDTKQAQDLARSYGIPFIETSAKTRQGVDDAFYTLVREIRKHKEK
KRAS G13D, sequence (P62937 whole entry): as the sequence (P62937 whole entry) above
Summary of the method: as §1

KRAS G12S = KRAS G12S (Homo sapiens, UniProt P01116+P62937, G12S); settings: with Cyclophilin A
KRAS G12S, sequence (P01116 1-169 isoform P01116-2 G12S limits assumed): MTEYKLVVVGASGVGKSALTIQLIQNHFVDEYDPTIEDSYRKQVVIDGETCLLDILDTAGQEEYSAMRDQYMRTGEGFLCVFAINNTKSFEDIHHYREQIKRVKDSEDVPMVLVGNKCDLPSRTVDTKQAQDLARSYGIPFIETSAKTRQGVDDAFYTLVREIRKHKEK
KRAS G12S, sequence (P62937 whole entry): as the sequence (P62937 whole entry) above
Summary of the method: as §1

KRAS G12D = KRAS G12D (Homo sapiens, UniProt P01116+P62937, G12D); settings: with Cyclophilin A
KRAS G12D, sequence (P01116 1-169 isoform P01116-2 G12D limits assumed): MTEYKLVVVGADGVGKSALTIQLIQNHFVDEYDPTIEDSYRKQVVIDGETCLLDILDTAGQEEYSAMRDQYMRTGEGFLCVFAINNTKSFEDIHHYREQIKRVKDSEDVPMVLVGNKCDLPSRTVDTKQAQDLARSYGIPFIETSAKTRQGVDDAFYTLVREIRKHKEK
KRAS G12D, sequence (P62937 whole entry): as the sequence (P62937 whole entry) above
Summary of the method: as §1

KRAS G12C = KRAS G12C (Homo sapiens, UniProt P01116+P62937, G12C); settings: with Cyclophilin A
KRAS G12C, sequence (P01116 1-169 isoform P01116-2 G12C limits assumed): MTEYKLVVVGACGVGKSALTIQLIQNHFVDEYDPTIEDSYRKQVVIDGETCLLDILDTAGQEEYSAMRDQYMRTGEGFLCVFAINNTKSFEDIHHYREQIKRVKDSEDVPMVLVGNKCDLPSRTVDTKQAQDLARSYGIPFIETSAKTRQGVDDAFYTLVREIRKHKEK
KRAS G12C, sequence (P62937 whole entry): as the sequence (P62937 whole entry) above
Summary of the method: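 His6-K-Ras G12C-GMPPNP (12.5 nM), GST-BRAF RBD (50 nM) and tagless Cyclophilin A (25 μM) incubated 3 h at 25 °C with compound (10-point 3-fold series from 30 μM), pH 7.3 HEPES buffer. Anti-His Eu/anti-GST APC added for 1.5 h; decreased TR-FRET ratio vs DMSO gives IC50.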

[1] = Ras-Raf disruption, read-out: KRAS WT FRET data IC50
[2] = Ras-Raf disruption, read-out: KRAS G12V FRET data IC50
[3] = Ras-Raf disruption, read-out: KRAS G13C FRET data IC50
[4] = NRAS G12C, read-out: NRAS G12C FRET data IC50
[5] = Ras-Raf disruption, read-out: KRAS G13D FRET data IC50
[6] = Ras-Raf disruption, read-out: KRAS G12S FRET data IC50
[7] = Ras-Raf disruption, read-out: KRAS G12D FRET data IC50
[8] = Ras-Raf disruption, read-out: KRAS G12C FRET data IC50
[9] = KRAS WT FRET data IC50, Ras-Raf disruption
[10] = KRAS G12V FRET data IC50, Ras-Raf disruption
[11] = KRAS G13C FRET data IC50, Ras-Raf disruption
[12] = NRAS G12C FRET data IC50, NRAS G12C
[13] = KRAS G13D FRET data IC50, Ras-Raf disruption
[14] = KRAS G12S FRET data IC50, Ras-Raf disruption
[15] = KRAS G12D FRET data IC50, Ras-Raf disruption
[16] = KRAS G12C FRET data IC50, Ras-Raf disruption

KRAS WT, sequence (P01116 1-169 isoform P01116-2 limits assumed): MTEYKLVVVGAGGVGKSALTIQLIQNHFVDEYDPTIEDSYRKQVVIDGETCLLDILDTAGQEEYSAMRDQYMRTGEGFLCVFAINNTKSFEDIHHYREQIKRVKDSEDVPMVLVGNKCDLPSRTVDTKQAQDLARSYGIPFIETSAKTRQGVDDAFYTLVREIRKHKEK
KRAS WT, sequence (P62937 whole entry): as the sequence (P62937 whole entry) above

Structure (SMILES) | IC50 (KRAS WT; [1]) | IC50 (KRAS G12V; [2]) | IC50 (KRAS G13C; [3]) | IC50 (NRAS G12C; [4]) | IC50 (KRAS G13D; [5]) | IC50 (KRAS G12S; [6]) | IC50 (KRAS G12D; [7]) | IC50 (KRAS G12C; [8]) | IC50 (KRAS WT; [9]) | IC50 (KRAS G12V; [10]) | IC50 (KRAS G13C; [11]) | IC50 (NRAS G12C; [12]) | IC50 (KRAS G13D; [13]) | IC50 (KRAS G12S; [14]) | IC50 (KRAS G12D; [15]) | IC50 (KRAS G12C; [16])
CCn1c(-c2cccnc2[C@H](C)OC)c2c3cc(ccc31)-c1cc(O)cc(c1)C[C@H](NC(=O)[C@H](C(C)C)N(C)C(=O)[C@@H]1CN1)C(=O)N1CCC[C@H](N1)C(=O)OCC(C)(C)C2 [Example 100] | 0.01 to 0.1 µM | 0.01 to 0.1 µM | 0.01 to 0.1 µM | 0.01 to 0.1 µM | 0.01 to 0.1 µM | 0.01 to 0.1 µM | 0.1 to 1 µM | 0.01 to 0.1 µM |  |  |  |  |  |  |  | 
CCn1c(-c2cccnc2[C@H](C)OC)c2c3cc(ccc31)-c1cc(O)cc(c1)C[C@H](NC(=O)[C@H](C(C)C)N1CCC3(CN(C(=O)[C@@H]4CN4)C3)C1=O)C(=O)N1CCC[C@H](N1)C(=O)OCC(C)(C)C2 [Example 109] | 0.01 to 0.1 µM | 0.1 to 1 µM | 0.01 to 0.1 µM | < 0.01 µM | 0.01 to 0.1 µM | 0.1 to 1 µM | 1 to 10 µM | < 0.01 µM |  |  |  |  |  |  |  | 
CCn1c(-c2cccnc2[C@H](C)OC)c2c3cc(ccc31)-c1cc(O)cc(c1)C[C@H](NC(=O)[C@H](C(C)C)N(C)C(=O)[C@H]1CN1)C(=O)N1CCC[C@H](N1)C(=O)OCC(C)(C)C2 [Example 112] | 0.01 to 0.1 µM | 0.1 to 1 µM | 0.01 to 0.1 µM | 0.1 to 1 µM | 0.1 to 1 µM | 0.1 to 1 µM | 0.1 to 1 µM | 0.1 to 1 µM |  |  |  |  |  |  |  | 
CCn1c(-c2cccnc2[C@H](C)OC)c2c3cc(ccc31)-c1cc(O)cc(c1)C[C@H](NC(=O)[C@H](C(C)C)N1CCC3(CCN(C(=O)[C@@H]4CN4)C3)C1=O)C(=O)N1CCC[C@H](N1)C(=O)OCC(C)(C)C2 (stereo partly shown) [Example 113] | 0.01 to 0.1 µM | 0.01 to 0.1 µM | 0.01 to 0.1 µM | < 0.01 µM | 0.01 to 0.1 µM | 0.01 to 0.1 µM | 0.01 to 0.1 µM | < 0.01 µM |  |  |  |  |  |  |  | 
CCn1c(-c2cccnc2[C@H](C)OC)c2c3cc(ccc31)-c1cc(O)cc(c1)C[C@H](NC(=O)[C@H](C(C)C)N1CCC3(CN(C(=O)[C@H]4CN4)C3)C1=O)C(=O)N1CCC[C@H](N1)C(=O)OCC(C)(C)C2 [Example 115] | 0.01 to 0.1 µM | 0.1 to 1 µM | 0.01 to 0.1 µM | < 0.01 µM | 0.01 to 0.1 µM | 0.1 to 1 µM | 0.1 to 1 µM | < 0.01 µM |  |  |  |  |  |  |  | 
CCn1c(-c2cccnc2[C@H](C)OC)c2c3cc(ccc31)-c1cccc(c1)C[C@H](NC(=O)[C@H](C(C)C)N(C)C(=O)[C@H]1CC[C@H](N=C=NC34CC(C3)C4)C1)C(=O)N1CCC[C@H](N1)C(=O)OCC(C)(C)C2 [Example 123] | 1 to 10 µM | 1 to 10 µM | 0.1 to 1 µM | 0.1 to 1 µM | > 10 µM | > 10 µM | 1 to 10 µM | 0.1 to 1 µM |  |  |  |  |  |  |  | 
CCn1c(-c2cccnc2[C@H](C)OC)c2c3cc(ccc31)-c1cccc(c1)C[C@H](NC(=O)[C@H](C(C)C)N(C)C(=O)[C@H]1CC[C@H](N=C=NC(C)C)C1)C(=O)N1CCC[C@H](N1)C(=O)OCC(C)(C)C2 [Example 124] | 1 to 10 µM | 1 to 10 µM | 0.01 to 0.1 µM | 0.01 to 0.1 µM | > 10 µM | > 10 µM | 1 to 10 µM | 0.01 to 0.1 µM |  |  |  |  |  |  |  | 
CCn1c(-c2cccnc2[C@H](C)OC)c2c3cc(ccc31)-c1cccc(c1)C[C@H](NC(=O)[C@H](C(C)C)N(C)C(=O)[C@H]1CC[C@H](N=C=NC(C)(C)C)C1)C(=O)N1CCC[C@H](N1)C(=O)OCC(C)(C)C2 [Example 125] | > 10 µM | > 10 µM | 0.1 to 1 µM | 0.01 to 0.1 µM | > 10 µM | > 10 µM | 1 to 10 µM | 0.01 to 0.1 µM |  |  |  |  |  |  |  | 
CCn1c(-c2cccnc2[C@H](C)OC)c2c3cc(ccc31)-c1cccc(c1)C[C@H](NC(=O)[C@H](C(C)C)N(C)C(=O)[C@H]1C[C@H](N=C=Nc3c(C)cccc3C)C1)C(=O)N1CCC[C@H](N1)C(=O)OCC(C)(C)C2 [Example 126] | 1 to 10 µM | 1 to 10 µM | 0.1 to 1 µM | 0.1 to 1 µM | 1 to 10 µM | 0.1 to 1 µM | 1 to 10 µM | 0.1 to 1 µM |  |  |  |  |  |  |  | 
CCn1c(-c2cccnc2[C@H](C)OC)c2c3cc(ccc31)-c1cc(O)cc(c1)C[C@H](NC(=O)[C@H](C(C)C)N(C)C(=O)c1ccc(NC(=O)[C@H]3CN3)cn1)C(=O)N1CCC[C@H](N1)C(=O)OCC(C)(C)C2 [Example 127] | 0.1 to 1 µM | 0.1 to 1 µM | 0.01 to 0.1 µM | 0.1 to 1 µM | 0.1 to 1 µM | 0.01 to 0.1 µM | 0.1 to 1 µM | 0.1 to 1 µM |  |  |  |  |  |  |  | 
CCn1c(-c2cccnc2[C@H](C)OC)c2c3cc(ccc31)-c1cc(O)cc(c1)C[C@H](NC(=O)[C@H](C(C)C)N1CC[C@@]3(CCN(C(=O)[C@@H]4N[C@@H]4C4CC4)C3)C1=O)C(=O)N1CCC[C@H](N1)C(=O)OCC(C)(C)C2 [Example 128] | 0.1 to 1 µM | 0.1 to 1 µM | 0.01 to 0.1 µM | 0.01 to 0.1 µM | 0.1 to 1 µM | 0.1 to 1 µM | 0.1 to 1 µM | 0.01 to 0.1 µM |  |  |  |  |  |  |  | 
CCn1c(-c2cccnc2[C@H](C)OC)c2c3cc(ccc31)-c1cc(O)cc(c1)C[C@H](NC(=O)[C@H](C(C)C)N1CC[C@@H](NC(=O)[C@@H]3CN3)C1=O)C(=O)N1CCC[C@H](N1)C(=O)OCC(C)(C)C2 [Example 129] |  |  |  |  |  |  |  |  | 0.01 to 0.1 µM | 0.1 to 1 µM | < 0.01 µM | 0.01 to 0.1 µM | 0.01 to 0.1 µM | 0.01 to 0.1 µM | 0.1 to 1 µM | 0.01 to 0.1 µM
CCn1c(-c2cccnc2[C@H](C)OC)c2c3cc(ccc31)-c1cc(O)cc(c1)C[C@H](NC(=O)[C@H](C(C)C)N1CC[C@@H](NC(=O)[C@H]3CN3)C1=O)C(=O)N1CCC[C@H](N1)C(=O)OCC(C)(C)C2 [Example 130] |  |  |  |  |  |  |  |  | 0.01 to 0.1 µM | 0.1 to 1 µM | 0.01 to 0.1 µM | 0.01 to 0.1 µM | 0.01 to 0.1 µM | 0.01 to 0.1 µM | 0.1 to 1 µM | 0.01 to 0.1 µM
CCn1c(-c2cccnc2[C@H](C)OC)c2c3cc(ccc31)-c1cc(O)cc(c1)C[C@H](NC(=O)[C@H](C(C)C)N(C)C(=O)c1ccc([C@@H]3CN3)cc1)C(=O)N1CCC[C@H](N1)C(=O)OCC(C)(C)C2 [Example 131] | 0.1 to 1 µM | 0.1 to 1 µM | 0.01 to 0.1 µM | 0.01 to 0.1 µM | 0.1 to 1 µM | 0.1 to 1 µM | 0.1 to 1 µM | 0.01 to 0.1 µM |  |  |  |  |  |  |  | 
